Assay results as given in patent publication US20110052713A1, “REPAIRING DAMAGED NERVOUS SYSTEM TISSUE WITH NANOPARTICLES” (priority 2008, published 2011).
Like-named read-outs stand apart in the source and are kept apart here.

Key:
PC 12 cells [1] = assay: MTT assay after acrolein exposure (MSN study); assay type: cell-based; conditions: Rattus norvegicus, read-out: MTT activity (absorbance), % of control values
Description: (§1) Exposure to 100 μM acrolein can induce the death of >80% of a population of PC 12 Cells by a few hours, and 100% by 8-12 hours of observation. […] Typically, populations of cells with acrolein-mediated damage show a significant reduction in MTT activity due to the collapse of mitochondria function.

PC 12 cells [2] = assay: MTT assay after acrolein exposure (chitosan nanoparticles); assay type: cell-based
Description: (§2) In one example, functional tests (MTT and LDH exclusion tests) were used to evaluate the response to different chitosan formulations in PC 12 cells suffering from acrolein exposure. We compared the effectiveness of these formulations using entire cell populations in six different groups: 1) a control group, (2) a 100 μM acrolein-exposed group, (3) a 100 μM acrolein-exposed and Chi-DS nanoparticle—treated group, (4) a 100 μM acrolein-exposed and Chi-DS/Hy nanoparticle—treated group, (5) a 100 μM acrolein-exposed and Chi-TPP nanoparticle—treated group, and (6) a 100 μM acrolein-exposed and Chi-TPP/Hy nanoparticle—treated group. First, we tested whether chitosan nanoparticles were capable of sufficiently reducing acrolein cytotoxicity using the MTT assay. In all experiments, the various types of nanoparticles were added to the cell medium after 15 min following the exposure to acrolein. As a consequence of acrolein exposure, approximately 98% of the cells in culture died within a couple of hours. Acrolein-induced cytotoxicity was expressed as a percentage of MTT activity, which is, as explained above, an indicator of aberrant mitochondria functioning. Thus, MTT activity subsequent to 100 acrolein exposure was decreased to 3.5±2.9% of controls values. […] Even more significant increase was observed after application of hydralazine-entrapped chitosan nanoparticles. […]

PC 12 cells [3] = assay: Live-dead cell assay after acrolein exposure; assay type: cell-based; conditions: 5 hr, control cells 90±7%
PC 12 cells [4] = conditions: 100 μM acrolein, cited from earlier work
PC 12 cells [5] = assay: LDH release assay after acrolein exposure (MSN study); assay type: cell-based; conditions: Rattus norvegicus, PC-12, 0.25 h; 100 μM acrolein; treatment added with 15 min delay; acrolein row = acrolein alone; read-out: LDH release, % of control values
Description: as §1

[6] = tested on: acrolein poisoned cultures; assay: ROS level in acrolein poisoned cultures; assay type: cell-based; conditions: 100 μM acrolein; acrolein row = acrolein alone; read-out: level of ROS, % of control values
PC 12 cells [7] = assay: LDH release after acrolein exposure (chitosan nanoparticles); assay type: cell-based; conditions: Rattus norvegicus, 100 μM acrolein, post-treatment with nanoparticles, acrolein row = acrolein alone, read-out: LDH release, % of control values
Description: as §2

[8] = tested on: voltage gated fast potassium channels; conditions: paralyzed persons; cited from earlier work

With `NNc1nncc2ccccc12` [hydralazine] the activity at 500 µM (PC 12 cells [1]) was 53.8 ± 18.6%.
In the case of `C=CC=O` [acrolein], the activity at 100 µM (PC 12 cells [2]; Rattus norvegicus, PC-12, 100 μM acrolein, nanoparticles added 15 min after, after 5 hr, acrolein row = acrolein alone, read-out: MTT activity / survival, % of control values) is reported as 3.5 ± 2.9%, the “cells in culture that died” value (PC 12 cells [2]; acrolein exposure, within a couple of hours) is reported as “approximately 98%” and the “cell survival (live-dead cell assay)” value (PC 12 cells [3]) is reported as 30±8%. The “death of cell population” value (PC 12 cells [4]; by 8-12 hours of observation) was 100%, the “death of cell population” value (PC 12 cells [4]; by a few hours) was > 80% and the activity at 100 µM (PC 12 cells [5]) was 168 ± 15.4%. It also gave an activity at 100 µM [6] of 120 ± 14%, an activity at 100 µM (PC 12 cells [7]) of 178 ± 25.4% and an activity at 100 µM (PC 12 cells [1]) of 11 ± 10.2%.
For `Nc1ccncc1` [4-Aminopyridine], the “share of treated population with clinically meaningful recoveries of function” value [8] is given as “about 30%”.
